Source: patent US7705038B2, “Control of parasites in animals by the use of parasiticidal 2-phenyl-3-(1H-pyrrol-2-yl)acrylonitrile derivatives” (Intervet, Inc., priority 2004, dated 2010)

Tests used:
Haemonchus contortus = test: Activity against Haemonchus contortus (LD99); details: dose required to kill 99% of the sample of Haemonchus contortus
Source text: (§1) Exemplified compounds of Formula 1 are listed by Tables 1a and 1b, above. The activity of these compounds against Haemonchus contortus and cat fleas (Ctenocephalides felis) is summarized by Table 7, below.
The LD99 value is the dose, expressed as μg/ml, that was required to kill 99% of the sample of Haemonchus contortus.

[1] = tested on: cat fleas (Ctenocephalides felis); test: Contact activity against cat fleas (LC50, % kill); details: for LC50: concentration required to kill 50% of the sample of cat fleas on contact; for % Kill: percent of a sample of cat fleas killed at a concentration of 1.26 μg/cm^2; for pest or weed control at 1.26 µg/cm2, 1.26 µg/cm2: Ctenocephalides felis, read-out: % Kill
Source text: as §1

| SMILES | LD99 (Haemonchus contortus) | LC50 [1] | % Kill [1] | EC99 (Haemonchus contortus) | pest or weed control at 1.26 µg/cm2, 1.26 µg/cm2 [1] |
| --- | --- | --- | --- | --- | --- |
| N#C/C(=C\c1ccc[nH]1)c1cccc(C(F)(F)F)c1 [Compound 9] | 0.938 µg/mL | 9.94 μg/cm^2 | 56% | – | – |
| N#C/C(=C\c1ccc[nH]1)c1cccc(F)c1 [Compound 10] | 1.625 µg/mL | 0.78 μg/cm^2 | 78% | – | – |
| N#C/C(=C\c1cc(Br)c[nH]1)c1ccc(C(F)(F)F)cc1 [Compound 11] | — (the symbol ‘—’ indicates tested but inactive up to 15 μg/ml) | – | 18% | – | – |
| N#C/C(=C\c1ccc[nH]1)c1ccc(Cl)cc1Cl [Compound 13] | 3 µg/mL | – | 8% | – | – |
| COc1ccc(/C(C#N)=C/c2ccc[nH]2)cc1 [Compound 14] | 1.5 µg/mL | – | 31% | – | – |
| CC(C)(C)c1ccc(/C(C#N)=C/c2ccc[nH]2)cc1 [Compound 15] | 3.25 µg/mL | 0.478 μg/cm^2 | 87% | – | – |
| Cc1ccccc1/C(C#N)=C/c1ccc[nH]1 [Compound 16, (Z)-2-(2-Methyl-phenyl)-3-(1H-pyrrol-2-yl)acrylonitrile] | – | 0.076 μg/cm^2 | – | 3.75 µg/mL | 100% |
| N#C/C(=C\c1ccc[nH]1)c1ccccc1 [Compound 17] | 0.469 µg/mL | 0.259 μg/cm^2 | 98% | – | – |
| N#C/C(=C\c1ccc[nH]1)c1ccc(-c2ccccc2)cc1 [Compound 18] | 7.5 µg/mL | – | 46% | – | – |
| N#C/C(=C\c1ccc[nH]1)c1ccc2c(c1)OCO2 [Compound 19, 2-(3,4-methylenedioxy)phenyl-3-(1H-pyrrol-2-yl)acrylonitrile] | – | – | – | 6 µg/mL | 26% |
| N#C/C(=C\c1ccc[nH]1)c1ccc(C#N)cc1 [Compound 20] | 10 µg/mL | – | 44% | – | – |
| Cn1cccc1/C=C(\C#N)c1ccc(C(F)(F)F)cc1 [Compound 21] | — (the symbol ‘—’ indicates tested but inactive up to 15 μg/ml) | – | 24% | – | – |
| Cn1cccc1/C=C(\C#N)c1cccc(C(F)(F)F)c1 [Compound 22] | 5.5 µg/mL | – | 19% | – | – |
| N#C/C(=C\c1cc(Br)c[nH]1)c1ccc(Cl)cc1 [Compound 23] | 0.469 µg/mL | – | 23% | – | – |
| N#C/C(=C\c1ccc[nH]1)c1ccccc1Cl [Compound 24] | 2.75 µg/mL | – | 19% | – | – |
| N#C/C(=C\c1ccc[nH]1)c1ccccc1F [Compound 25] | 2.5 µg/mL | 0.594 μg/cm^2 | 92% | – | – |
| Cc1ccc(/C(C#N)=C/c2ccc[nH]2)cc1 [Compound 26] | 0.938 µg/mL | – | 69% | – | – |
| N#C/C(=C\c1ccc[nH]1)c1ccc(Cl)c(Cl)c1 [Compound 27] | 0.406 µg/mL | – | 78% | – | – |
| N#C/C(=C\c1ccc[nH]1)c1ccc(F)cc1 [Compound 28] | 2.5 µg/mL | 0.295 μg/cm^2 | 19% | – | – |
| N#C/C(=C\c1cc(Br)c[nH]1)c1ccc(Cl)c(Cl)c1 [Compound 29] | 5 µg/mL | – | 15% | – | – |
| N#C/C(=C\c1cc(Br)c[nH]1)c1ccc(F)cc1 [Compound 30] | 11 µg/mL | – | 18% | – | – |
| N#C/C(=C\c1cc(Br)c[nH]1)c1cccc(F)c1 [Compound 31] | 1.75 µg/mL | – | 27% | – | – |
| N#C/C(=C\c1ccc[nH]1)c1cccc2ccccc12 [Compound 32, 2-(1-naphthyl)-3-(1H-pyrrol-2-yl)acrylonitrile] | – | – | – | 0.234 µg/mL | 42% |
| N#C/C(=C\c1ccc[nH]1)c1ccc(Br)cc1 [Compound 33] | 3 µg/mL | – | 15% | – | – |
| N#CC(=Cc1cc(Br)c[nH]1)c1cccc2ccccc12 [Compound 34, 2-(1-naphthyl)-3-(4-bromo-1H-pyrrol-2-yl)acrylonitrile] | – | – | – | 0.813 µg/mL | 21% |
| N#C/C(=C\c1ccc[nH]1)c1ccccc1 [Compound 35] | — (the symbol ‘—’ indicates tested but inactive up to 15 μg/ml) | – | 21% | – | – |
| N#C/C(=C\c1ccc[nH]1)c1ccc(I)cc1 [Compound 36] | 0.688 µg/mL | – | 14% | – | – |
| N#C/C(=C\c1ccc[nH]1)c1ccccc1C#N [Compound 37] | — (the symbol ‘—’ indicates tested but inactive up to 15 μg/ml) | – | 11% | – | – |
